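Test compounds were applied to cells in 96-well plates for 48 hours at 5 doses. GI50 = concentration required for 50% inhibition of growth.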 The source made the active and inactive calls. No stated cut-off is given here; in the data, active = GI50 up to about 1.1 µM and inactive = higher.
Experiments:
Experiment in all cases: inhibition of tumour cell growth, NCI panel, 48 h
786-0 = tested on: 786-0
A498 = tested on: A498
A549 = tested on: A549
ACHN = tested on: ACHN
CAKI-1 = tested on: CAKI-1
CCRF-CEM = tested on: CCRF-CEM
COLO 205 = tested on: COLO 205
DLD-1 = tested on: DLD-1
DMS-114 = tested on: DMS-114
EKVX = tested on: EKVX
HCC 2998 = tested on: HCC 2998
HCT-116 = tested on: HCT-116
HCT-15 = tested on: HCT-15
HL-60 = tested on: HL-60
HOP-18 = tested on: HOP-18
HOP-62 = tested on: HOP-62
HOP-92 = tested on: HOP-92
HT-29 = tested on: HT-29
IGROV-1 = tested on: IGROV-1
K562 = tested on: K562
KM-20L2 = tested on: KM-20L2
KM12 = tested on: KM12
LOX IMVI = tested on: LOX IMVI
LXFL 529 = tested on: LXFL 529
M14 = tested on: M14
M19-MEL = tested on: M19-MEL
Malme-3M = tested on: Malme-3M
NCI-H226 = tested on: NCI-H226
NCI-H23 = tested on: NCI-H23
NCI-H460 = tested on: NCI-H460
NCI-H522 = tested on: NCI-H522
OVCAR-3 = tested on: OVCAR-3
OVCAR-4 = tested on: OVCAR-4
OVCAR-5 = tested on: OVCAR-5
OVCAR-8 = tested on: OVCAR-8
RPMI-8226 = tested on: RPMI-8226
RXF 393 = tested on: RXF 393
RXF 631 = tested on: RXF 631
SF-268 = tested on: SF-268
SF-295 = tested on: SF-295
SF-539 = tested on: SF-539
SK-MEL-28 = tested on: SK-MEL-28
SK-MEL-5 = tested on: SK-MEL-5
SK-OV-3 = tested on: SK-OV-3
SN12C = tested on: SN12C
SNB-19 = tested on: SNB-19
SNB-75 = tested on: SNB-75
SNB-78 = tested on: SNB-78
SR = tested on: SR
SW-620 = tested on: SW-620
TK-10 = tested on: TK-10
U-251 = tested on: U-251
UACC-257 = tested on: UACC-257
UACC-62 = tested on: UACC-62
UO-31 = tested on: UO-31
XF498 = tested on: XF498
DMS-273 = tested on: DMS-273
MOLT-4 = tested on: MOLT-4
SK-MEL-2 = tested on: SK-MEL-2

For `COc1ccc(NC(=O)/C(Cc2nc3ccccc3nc2O)=N\O)c(OC)c1`, the GI50 (786-0) was > 100 µM (inactive), the GI50 (A498) was > 100 µM (inactive) and the GI50 (A549) was > 100 µM (inactive). For the same molecule, the GI50 (ACHN) was > 100 µM (inactive), the GI50 (CAKI-1) was > 100 µM (inactive) and the GI50 (CCRF-CEM) was > 100 µM (inactive). The GI50 (COLO 205) was > 100 µM (inactive), the GI50 (DLD-1) was > 100 µM (inactive) and the GI50 (DMS-114) was > 100 µM (inactive). For the same molecule, the GI50 (EKVX) was > 100 µM (inactive), the GI50 (HCC 2998) was > 100 µM (inactive) and the GI50 (HCT-116) was > 100 µM (inactive). The GI50 (HCT-15) was over 100 µM, the GI50 (HL-60) was > 100 µM (inactive) and the GI50 (HOP-18) was > 100 µM (inactive). For the same molecule, the GI50 (HOP-62) was > 100 µM (inactive), the GI50 (HOP-92) was > 100 µM (inactive) and the GI50 (HT-29) was > 100 µM (inactive). The GI50 (IGROV-1) was > 100 µM (inactive), the GI50 (K562) was > 100 µM (inactive) and the GI50 (KM-20L2) was > 100 µM (inactive). For the same molecule, the GI50 (KM12) was > 100 µM (inactive), the GI50 (LOX IMVI) was > 100 µM (inactive) and the GI50 (LXFL 529) was > 100 µM (inactive). The GI50 (M14) was > 100 µM (inactive), the GI50 (M19-MEL) was > 100 µM (inactive) and the GI50 (Malme-3M) was > 100 µM (inactive). For the same molecule, the GI50 (NCI-H226) was > 100 µM (inactive), the GI50 (NCI-H23) was > 100 µM (inactive) and the GI50 (NCI-H460) was > 100 µM (inactive). For the same molecule, the GI50 (NCI-H522) was > 100 µM (inactive), the GI50 (OVCAR-3) was > 100 µM (inactive) and the GI50 (OVCAR-4) was > 100 µM (inactive). The GI50 (OVCAR-5) was > 100 µM (inactive), the GI50 (OVCAR-8) was > 100 µM (inactive) and the GI50 (RPMI-8226) was > 100 µM (inactive). The GI50 (RXF 393) was > 100 µM (inactive), the GI50 (RXF 631) was > 100 µM (inactive) and the GI50 (SF-268) was > 100 µM (inactive). For the same molecule, the GI50 (SF-295) was > 100 µM (inactive), the GI50 (SF-539) was > 100 µM (inactive) and the GI50 (SK-MEL-28) was > 100 µM (inactive). The GI50 (SK-MEL-5) was > 100 µM (inactive), the GI50 (SK-OV-3) was > 100 µM (inactive) and the GI50 (SN12C) was > 100 µM (inactive). For the same molecule, the GI50 (SNB-19) was > 100 µM (inactive), the GI50 (SNB-75) was > 100 µM (inactive) and the GI50 (SNB-78) was > 100 µM (inactive). For the same molecule, the GI50 (SR) was > 100 µM (inactive), the GI50 (SW-620) was > 100 µM (inactive) and the GI50 (TK-10) was > 100 µM (inactive). For the same molecule, the GI50 (U-251) was > 100 µM (inactive), the GI50 (UACC-257) was > 100 µM (inactive) and the GI50 (UACC-62) was > 100 µM (inactive). For the same molecule, the GI50 (UO-31) was > 100 µM (inactive) and the GI50 (XF498) was > 100 µM (inactive).

For `C=C(CS(=O)(=O)c1ccccc1)C(=O)OCC`, the GI50 (786-0) was 17.3 µM (inactive), the GI50 (A549) was 18.5 µM (inactive) and the GI50 (ACHN) was 15.5 µM (inactive). The GI50 (CAKI-1) was 18 µM (inactive), the GI50 (CCRF-CEM) was 2.77 µM (inactive) and the GI50 (COLO 205) was 18.9 µM (inactive). For the same molecule, the GI50 (DLD-1) was 4.49 µM (inactive), the GI50 (DMS-114) was 5.37 µM (inactive) and the GI50 (DMS-273) was 16.4 µM (inactive). For the same molecule, the GI50 (EKVX) was 19.7 µM (inactive), the GI50 (HCC 2998) was 19.4 µM (inactive) and the GI50 (HCT-116) was 13.4 µM (inactive). The GI50 (HCT-15) was 12.6 µM, the GI50 (HOP-92) was 21.4 µM (inactive) and the GI50 (HT-29) was 11.2 µM (inactive). For the same molecule, the GI50 (IGROV-1) was 19 µM (inactive), the GI50 (K562) was 5.33 µM (inactive) and the GI50 (KM-20L2) was 21.8 µM (inactive). For the same molecule, the GI50 (KM12) was 16.1 µM (inactive), the GI50 (LOX IMVI) was 10.5 µM (inactive) and the GI50 (LXFL 529) was 13.4 µM (inactive). The GI50 (M14) was 11.6 µM (inactive), the GI50 (MOLT-4) was 2.81 µM (inactive) and the GI50 (Malme-3M) was 16.1 µM (inactive). For the same molecule, the GI50 (NCI-H226) was 25.1 µM (inactive), the GI50 (NCI-H23) was 18.2 µM (inactive) and the GI50 (NCI-H460) was 18.7 µM (inactive). For the same molecule, the GI50 (NCI-H522) was 3.41 µM (inactive), the GI50 (OVCAR-3) was 13.4 µM (inactive) and the GI50 (OVCAR-5) was 19.6 µM (inactive). For the same molecule, the GI50 (OVCAR-8) was 10.5 µM (inactive), the GI50 (RXF 393) was 11.7 µM (inactive) and the GI50 (RXF 631) was 1.9 µM (inactive). For the same molecule, the GI50 (SF-268) was 19.6 µM (inactive), the GI50 (SF-295) was 18.1 µM (inactive) and the GI50 (SF-539) was 17.1 µM (inactive). The GI50 (SK-MEL-28) was 15.1 µM (inactive), the GI50 (SK-MEL-2) was 15.6 µM (inactive) and the GI50 (SK-OV-3) was 14.4 µM (inactive). The GI50 (SN12C) was 16.3 µM (inactive), the GI50 (SNB-19) was 20 µM (inactive) and the GI50 (SNB-75) was 17.4 µM (inactive). For the same molecule, the GI50 (SW-620) was 10.5 µM (inactive), the GI50 (TK-10) was 17.4 µM (inactive) and the GI50 (U-251) was 16.9 µM (inactive). For the same molecule, the GI50 (UACC-257) was 12.8 µM (inactive), the GI50 (UACC-62) was 4.74 µM (inactive) and the GI50 (UO-31) was 20 µM (inactive). The GI50 (XF498) was 19.2 µM (inactive).

In the case of `CCCCCCc1cc(C(=O)Nc2ccc(Cl)cc2)nc(S)n1`, the GI50 (A549) was > 100 µM (inactive), the GI50 (CAKI-1) was > 100 µM (inactive) and the GI50 (CCRF-CEM) was > 100 µM (inactive). For the same molecule, the GI50 (DLD-1) was > 10 µM (inactive), the GI50 (EKVX) was > 100 µM (inactive) and the GI50 (HL-60) was > 100 µM (inactive). The GI50 (HOP-62) was > 100 µM (inactive), the GI50 (HOP-92) was > 100 µM (inactive) and the GI50 (IGROV-1) was > 100 µM (inactive). The GI50 (K562) was > 100 µM (inactive), the GI50 (KM12) was > 100 µM (inactive) and the GI50 (LXFL 529) was > 100 µM (inactive). The GI50 (M14) was > 100 µM (inactive), the GI50 (MOLT-4) was > 100 µM (inactive) and the GI50 (NCI-H226) was > 10 µM (inactive). The GI50 (NCI-H23) was > 100 µM (inactive), the GI50 (NCI-H460) was > 10 µM (inactive) and the GI50 (NCI-H522) was > 100 µM (inactive). For the same molecule, the GI50 (OVCAR-4) was > 100 µM (inactive), the GI50 (OVCAR-5) was 31.1 µM (inactive) and the GI50 (RPMI-8226) was > 100 µM (inactive). The GI50 (RXF 393) was > 10 µM (inactive), the GI50 (RXF 631) was > 100 µM (inactive) and the GI50 (SF-539) was > 100 µM (inactive). The GI50 (SK-MEL-2) was > 100 µM (inactive), the GI50 (SK-MEL-5) was > 100 µM (inactive) and the GI50 (SK-OV-3) was > 100 µM (inactive). For the same molecule, the GI50 (SN12C) was > 100 µM (inactive), the GI50 (SR) was > 100 µM (inactive) and the GI50 (SW-620) was > 100 µM (inactive). The GI50 (U-251) was > 100 µM (inactive), the GI50 (UACC-257) was > 100 µM (inactive) and the GI50 (UO-31) was > 100 µM (inactive). The GI50 (XF498) was > 10 µM (inactive).

Reference: ChEMBL document CHEMBL1201862, “PubChem BioAssay data set” (2004)
